Structures can show the parent of a compound that is named as a salt. Where two headings read alike, the source gives them in different places.
Columns and labels:
MCF-7 = test: WST-1 cytotoxicity, MCF-7; type: cell-based, human; details: MCF7 (Breast); compound alone; 24 h; '>' = dose approximation; read-out: IC50 values
Method: (§1) Two different cytotoxicity/proliferation kit was used in this study i.e., WST-1 proliferation assay kit (Roche, Indianapolis, IN, USA; Cat #28620000) and Cell-titer Glo-luminescent cell viability assay (Promega, WI, USA; Cat #0000348721). Majority of the cell proliferation/cytotoxicity experiments were performed with WST-1 assay. Briefly, cells were seeded at the indicated density for 24 h in 96 well plate, media was replaced, and subsequently treated with the test compounds at different doses. […] Cell titer Glo-assay was additionally performed in certain cases to validate the results from WST-1 assay as outlined above following manufacturer's instructions and luminescence was measured using a FLx100 Luminometer (CLARIOSTAR®, Ortenbery, Germany). […] Other proliferation/cytotoxicity assays were also carried out i.e., Quant™-iT PicoGreen ds DNA assay kit (Thermo Scientific, Rockwood, TN, USA, P7589) following manufacturer's instructions, Trypan blue (Sigma, Ayrshire, UK, T8154) and acid phosphatase assay for validation of cytotoxicity/proliferation data from other assays.

SLC7A11 = SLC7A11 mRNA expression (qRT-PCR); details: HL60 and H1299 cells
H1299 = test: WST-1 cytotoxicity, H1299; type: cell-based, human; details: H1299 (Lung); compound alone; 24 h; '>' = dose approximation; read-out: IC50 values
Method: as §1

ATF4 = details: HEK293 ATF4 reporter; tunicamycin 2.5 μM, other compounds 5.0 μM; 24 h
Method: The next day, media was replaced with respective compounds as described. Twenty-four hours post-treatment, media were aspirated and replaced with 1:1 ratio of PBS:Bright Glo luciferase reagent mix (Promega, Madison, WI, USA) according to manufacturer's protocol. Cells were incubated in the dark for 10 min at room temperature with gentle rocking and luciferase activity was measured using an FLx100 Luminometer (CLARIOSTAR®, Ortenbery, Germany). In parallel, the same setup was made, and the cells were used to monitor the proliferation/toxicity of individual exposed compounds. Luciferase signal is normalized to the to the proliferation/toxicity of the individual compounds. Bortezomib (50 nM, Sigma-Aldrich, St. Louis, MO, USA), a known agonist for ATF4, was used as a positive control.
The next day, old media was replaced with media containing the respective compounds as described in the figure legends. […] Cells were incubated in the dark for 10 min at room temperature with gentle rocking and luciferase activity was measured using an FLx100 Luminometer (CLARIOSTAR®, Ortenbery, Germany). […] In parallel, the same setup was made, and the cells were used to monitor the proliferation/toxicity of individual compounds. Luciferase signal was normalized to correct for the proliferation/toxicity of the individual compounds. […] For ATF4 reporter assay, Hek293T reporter cells 20 were cultured similarly as indicated for MCF7 cells, except for seeding density was set at 300 cells/mm2. All other experimental set up was similar.

[1] = tested on: 23 different human cell lines of multiple cancer origins; test: Cytotoxicity across the cancer cell line panel (summary statements); type: cell-based
Method: as §1

H661 = test: WST-1 cytotoxicity, H661; type: cell-based, human; details: H661 (Lung), compound alone, 24 h, '>' = dose approximation, read-out: IC50 values
Method: as §1

NB4 = test: WST-1 cytotoxicity, NB4; type: cell-based, human; details: NB4 (Leukemia), compound alone, 24 h, '>' = dose approximation, read-out: IC50 values
Method: as §1

HL60 = test: WST-1 cytotoxicity and synergy analysis, HL60; type: cell-based, human; details: HL60 (Leukemia), compound alone, 24 h, '>' = dose approximation, read-out: IC50 values
Method: as §1

A549 = test: WST-1 cytotoxicity, A549; type: cell-based, human; details: A549 (Lung), compound alone, 24 h, '>' = dose approximation, read-out: IC50 values
Method: as §1

[2] = tested on: extracellular reduced thiols; test: Extracellular thiols measurement (DTDP method); type: cell-based, human; details: MCF7 cells
Method: Cell culture media was collected at specified time points after incubation with the respective compounds as described in the respective figure legends and extracellular total thiols were measured using the DTDP method 19. The protocol was adjusted to 96-well plate format. […] Absorbance was measured at 324 nm in a spectrophotometer (PowerWave HT, BioTek, VT, USA). The assay mixture with fresh media was used as a blank.

**Q.** Which IC50 (MCF-7) does the source give for Tunicamycin [reference compound] here?
**A.** > 5 µM

**Q.** What about the SLC7A11 expression (SLC7A11) of the same molecule?
**A.** Increased SLC7A11 expression

**Q.** What about the IC50 (H1299) of the same molecule?
**A.** > 20 µM

**Q.** What about the ATF4 activity (ATF4) of the same molecule?
**A.** Increased ATF4 activity

**Q.** For `CCOc1ccccc1-n1c(C(C)N2CCN(C(=O)COc3ccc(Cl)cc3)CC2)nc2ccccc2c1=O` (stereo not shown) [Erastin], which “effect of co-treatment on cytotoxicity of sodium selenite and selenocystine” value [1] is on record?
**A.** inhibition of cytotoxicity

**Q.** Which “effect of co-treatment on cytotoxicity of sodium selenite and selenocystine” value ([1]; chemical inhibition of cystine transport) does the source give for `O=C(O)c1cc(/N=N/c2ccc(S(=O)(=O)Nc3ccccn3)cc2)ccc1O` [Sulfasalazine] here?
**A.** inhibition of cytotoxicity

**Q.** Which IC50 (H661; Homo sapiens, NCI-H661) does the source give for `COC(=O)/C=C/C(=O)OC` [Dimethyl fumarate, reference compound] here?
**A.** > 40 µM

**Q.** And the IC50 (NB4; Homo sapiens, NB-4)?
**A.** > 40 µM

**Q.** And the IC50 (HL60; Homo sapiens, HL-60)?
**A.** > 40 µM

**Q.** And the IC50 (A549; Homo sapiens)?
**A.** > 40 µM

**Q.** Which ATF4 activity (ATF4) does the source give for `c1ccc([Te][Te]c2ccccc2)cc1` [diphenyl ditelluride] here?
**A.** Increased ATF4 activity

**Q.** For `c1ccc(SSc2ccccc2)cc1` [Phenyl disulfide], which IC50 (H661; Homo sapiens, NCI-H661) is on record?
**A.** > 20 µM

**Q.** And the IC50 (NB4; Homo sapiens, NB-4)?
**A.** > 20 µM

**Q.** And the IC50 (HL60; Homo sapiens, HL-60)?
**A.** > 40 µM

**Q.** And the IC50 (A549; Homo sapiens)?
**A.** > 40 µM

**Q.** Which results are given for `CC(C)(C)c1cc(O)ccc1O` [Tert-butyl hydroxyquinone, reference compound]?
**A.** IC50 (H661): > 40 µM; IC50 (NB4): > 20 µM; extracellular reduced thiols levels [2]: induced; IC50 (HL60): > 25 µM; IC50 (A549): > 20 µM; IC50 (MCF-7): > 60 µM; SLC7A11 expression (SLC7A11): Increased SLC7A11 expression; IC50 (H1299): > 100 µM; ATF4 activity (ATF4): not effective

**Q.** With `COc1cc(/C=C/C(=O)CC(=O)/C=C/c2ccc(O)c(OC)c2)ccc1O` [Curcumin, reference compound] as the molecule, how does the IC50 (H661; Homo sapiens, NCI-H661) read?
**A.** > 20 µM

**Q.** What about the IC50 (NB4; Homo sapiens, NB-4) of the same molecule?
**A.** > 20 µM

**Q.** What about the IC50 (HL60; Homo sapiens, HL-60) of the same molecule?
**A.** > 20 µM

**Q.** And the IC50 (A549; Homo sapiens)?
**A.** > 20 µM

From patent publication US20240299401A1, “NOVEL REDOX-BASED THERAPEUTIC APPROACH FOR TREATMENT OF CANCER” (THE PENN STATE RESEARCH FOUNDATION, priority 2020, published 2024)
